Measurements as given in patent US11000033B2, “Ketone or oxime compound, and herbicide” (NISSAN CHEMICAL CORPORATION, priority 2014, dated 2021).

Tests used:
Format in all cases: in vivo
[1] = system: Echinochloa oryzacola Vasing.; test: Test Example 1: herbicidal activity, application before weed generation in submerged conditions (symbol A); conditions: application herbicide amount 320 g/ha
Procedure, shortened: (§1)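 Weed control was rated three weeks after treatment on a 0–5 scale, from 5% or lower up to 90% or more. Pre-emergence water-surface application of diluted emulsion at a predetermined rate was made on the day of sowing, in flooded (4 cm water) pots containing rice seedlings, kept at 25–30 °C under glass.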

Scirpus juncoides = test: Test Example 1: herbicidal activity, application before weed generation in submerged conditions (symbol B); conditions: application herbicide amount 320 g/ha
Procedure, shortened: as §1

transplanted rice plant = test: Test Example 1: effect on crop, application before weed generation in submerged conditions (symbol a); conditions: application herbicide amount 320 g/ha
Procedure, shortened: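 Rice at 2.5 leaf stage transplanted into submerged soil (4 cm depth) sown with three weed species; herbicide applied before weed emergence.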

Monochoria vaginalis = test: Test Example 2: herbicidal activity, application during weed generation in submerged conditions (symbol C); conditions: Table 23; application herbicide amount 320 g/ha; grade 0-5 by criteria of Test Example 1
Procedure, shortened: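 Flooded-soil post-emergence test: emulsion of compound, water-diluted to target rate, applied to paddy water surface at 1–2 leaf stage of mixed-sown weeds (alluvial soil, 4 cm water, 25–30° C. greenhouse); visual rating 3 weeks after application.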

[2] = system: directly sowed rice plant; test: Test Example 3: effect on crop by foliage application, Wagner pot (symbol b); conditions: application herbicide amount 320 g/ha
Procedure, shortened: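 Plants are raised from seed in flooded paddy conditions: water stands 0.1–0.5 cm over alluvial soil, and the pot is kept in a greenhouse at 25–30 °C. Species sown are barnyardgrass (E. crus-galli var. crus-galli), Leptochloa chinensis, Cyperus difformis and rice.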

Avena fatua = test: Test Example 4: herbicidal effect by soil treatment (symbol I)
Procedure, shortened: (§2)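 Seeds were sown in sterilized diluvial soil, covered with about 1.5 cm of soil, and the soil surface was sprayed with a water-diluted emulsion of the compound at a predetermined rate. Plants grew in a greenhouse at 25° C. to 30° C.; effects were scored visually 3 weeks after application.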

Alopecurus myosuroides = test: Test Example 4: herbicidal effect by soil treatment (symbol J)
Procedure, shortened: as §2

Abutilon theophrasti = test: Test Example 4: herbicidal effect by soil treatment (symbol M)
Procedure, shortened: as §2

Amaranthus retroflexus = test: Test Example 4: herbicidal effect by soil treatment (symbol N)
Procedure, shortened: as §2

soybean = test: Test Example 4: effect on crop by soil treatment (symbol d); conditions: for d: soybean, effect on crop grade: application herbicide amount 320 g/ha
Procedure, shortened: (§3)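 Soil-treatment setup: crop and weed seeds were spot-sown into sterilized diluvial soil, then buried beneath approximately 1.5 cm of it, and the boxes were housed in a 25–30° C. greenhouse.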

beet = test: Test Example 4: effect on crop by soil treatment (symbol f); conditions: for f: beet, effect on crop grade: application herbicide amount 320 g/ha
Procedure, shortened: as §3

rapeseed = test: Test Example 4: effect on crop by soil treatment (symbol g); conditions: for g: rapeseed, effect on crop grade: application herbicide amount 320 g/ha
Procedure, shortened: as §3

Digitaria ciliaris = test: Test Example 5: herbicidal effect by foliage application, plastic box (symbol F); conditions: 320 g/ha, 3 weeks after application
Procedure, shortened: (§4)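 Leaf-applied emulsion, water-diluted to a preset herbicide dose, on two-week-old seedlings raised in a 25° C. to 30° C. greenhouse; injury rated at 3 weeks using earlier criteria.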

[3] = system: Echinochloa crus-galli var. crus-galli; test: Test Example 5: herbicidal effect by foliage application, plastic box (symbol H); conditions: 320 g/ha, 3 weeks after application
Procedure, shortened: as §4

[4] = application herbicide amount 320 g/ha

SMILES | Herbicidal effect grade, A: Echinochloa oryzacola Vasing. [1] | Herbicidal effect grade, B: Scirpus juncoides (Scirpus juncoides) | Effect grade on crop, a: transplanted rice plant (transplanted rice plant) | Herbicidal effect grade, C: Monochoria vaginalis (Monochoria vaginalis) | effect on crop b (directly sowed rice plant), grade 0-5 [2] | I: Avena fatua, herbicidal effect grade (Avena fatua; [4]) | J: Alopecurus myosuroides, herbicidal effect grade (Alopecurus myosuroides; [4]) | M: Abutilon theophrasti, herbicidal effect grade (Abutilon theophrasti; [4]) | N: Amaranthus retroflexus, herbicidal effect grade (Amaranthus retroflexus; [4]) | d: soybean, effect on crop grade (soybean) | f: beet, effect on crop grade (beet) | g: rapeseed, effect on crop grade (rapeseed) | F: Digitaria ciliaris, herbicidal effect grade (Digitaria ciliaris) | H: Echinochloa crus-galli var. crus-galli, herbicidal effect grade [3] | other results
CCc1cc(-n2cc(Cl)cn2)cc(C)c1C1=C(O)CC(CC(C)=NOC)C1=O (mixture of isomers) [6-005] | 5 (Herbicidal ratio of 90% or more (almost completely withered)) | 5 (Herbicidal ratio of 90% or more (almost completely withered)) | 5 (Herbicidal ratio of 90% or more (almost completely withered)) | 3 (Herbicidal ratio of 40% or higher and lower than 70%) | 5 (Herbicidal ratio of 90% or more (almost completely withered)) | 4 (Herbicidal ratio of 70% or higher and lower than 90%) | 5 (Herbicidal ratio of 90% or more (almost completely withered)) | 0 (Herbicidal ratio of 5% or lower (almost no effect)) | 0 (Herbicidal ratio of 5% or lower (almost no effect)) | 1 (Herbicidal ratio of 5% or higher and lower than 20%) | 0 (Herbicidal ratio of 5% or lower (almost no effect)) | 0 (Herbicidal ratio of 5% or lower (almost no effect)) | 5 (Herbicidal ratio of 90% or more (almost completely withered)) | 5 (Herbicidal ratio of 90% or more (almost completely withered)) | 
CCC(CCC1CC(O)=C(c2c(C)cc(C)cc2C)C1=O)=NOC (mixture of isomers) [4-001] | 0 (Herbicidal ratio of 5% or lower (almost no effect)) | 0 (Herbicidal ratio of 5% or lower (almost no effect)) | 0 (Herbicidal ratio of 5% or lower (almost no effect)) | 0 (Herbicidal ratio of 5% or lower (almost no effect)) | 4 (Herbicidal ratio of 70% or higher and lower than 90%) | 0 (Herbicidal ratio of 5% or lower (almost no effect)) | 3 (Herbicidal ratio of 40% or higher and lower than 70%) | 0 (Herbicidal ratio of 5% or lower (almost no effect)) | 0 (Herbicidal ratio of 5% or lower (almost no effect)) | 0 (Herbicidal ratio of 5% or lower (almost no effect)) | 0 (Herbicidal ratio of 5% or lower (almost no effect)) | 1 (Herbicidal ratio of 5% or higher and lower than 20%) | 3 (Herbicidal ratio of 40% or higher and lower than 70%) | 2 (Herbicidal ratio of 20% or higher and lower than 40%) | 
CC(=O)CC1CC(OC(=O)C(C)(C)C)=C(c2c(C)cc(C)cc2C)C1=O (stereo not drawn) [2-018] | 5 (Herbicidal ratio of 90% or more (almost completely withered)) | 2 (Herbicidal ratio of 20% or higher and lower than 40%) | 4 (Herbicidal ratio of 70% or higher and lower than 90%) | 0 (Herbicidal ratio of 5% or lower (almost no effect)) | 5 (Herbicidal ratio of 90% or more (almost completely withered)) | 0 (Herbicidal ratio of 5% or lower (almost no effect)) | 3 (Herbicidal ratio of 40% or higher and lower than 70%) | 4 (Herbicidal ratio of 70% or higher and lower than 90%) | 3 (Herbicidal ratio of 40% or higher and lower than 70%) | 0 (Herbicidal ratio of 5% or lower (almost no effect)) | 0 (Herbicidal ratio of 5% or lower (almost no effect)) | 3 (Herbicidal ratio of 40% or higher and lower than 70%) | 1 (Herbicidal ratio of 5% or higher and lower than 20%) | 1 (Herbicidal ratio of 5% or higher and lower than 20%) | 
CON=C(C)CC1CC(OC(=O)C(C)(C)c2ccc(Cl)cc2)=C(c2c(C)cc(C)cc2C)C1=O (stereo not drawn) [1-148] | 5 (Herbicidal ratio of 90% or more (almost completely withered)) | 4 (Herbicidal ratio of 70% or higher and lower than 90%) | 5 (Herbicidal ratio of 90% or more (almost completely withered)) | 4 (Herbicidal ratio of 70% or higher and lower than 90%) | 5 (Herbicidal ratio of 90% or more (almost completely withered)) |  |  |  |  |  |  |  |  |  | I: Avena fatua, herbicidal effect grade (Avena fatua; 320 g/ha): 0 (Herbicidal ratio of 5% or lower (almost no effect)); J: Alopecurus myosuroides, herbicidal effect grade (Alopecurus myosuroides; 320 g/ha): 5 (Herbicidal ratio of 90% or more (almost completely withered)); M: Abutilon theophrasti, herbicidal effect grade (Abutilon theophrasti; 320 g/ha): 5 (Herbicidal ratio of 90% or more (almost completely withered)); N: Amaranthus retroflexus, herbicidal effect grade (Amaranthus retroflexus; 320 g/ha): 2 (Herbicidal ratio of 20% or higher and lower than 40%); d: soybean, effect grade on crop (soybean; 320 g/ha): 0 (Herbicidal ratio of 5% or lower (almost no effect)); f: beet, effect grade on crop (beet; 320 g/ha): 0 (Herbicidal ratio of 5% or lower (almost no effect)); g: rapeseed, effect grade on crop (rapeseed; 320 g/ha): 4 (Herbicidal ratio of 70% or higher and lower than 90%); F: Digitaria ciliaris, herbicidal effect (criteria 0-5) (Digitaria ciliaris): 5 (Herbicidal ratio of 90% or more (almost completely withered)); H: Echinochloa crus-galli var. crus-galli, herbicidal effect (criteria 0-5) [3]: 5 (Herbicidal ratio of 90% or more (almost completely withered))
CCc1cc(C)cc(C)c1C1=C(O)CC(CC(C)=NOC)C1=O (stereo not drawn) [6-007] | 5 (Herbicidal ratio of 90% or more (almost completely withered)) | 5 (Herbicidal ratio of 90% or more (almost completely withered)) | 5 (Herbicidal ratio of 90% or more (almost completely withered)) | 2 (Herbicidal ratio of 20% or higher and lower than 40%) | 5 (Herbicidal ratio of 90% or more (almost completely withered)) | 4 (Herbicidal ratio of 70% or higher and lower than 90%) | 5 (Herbicidal ratio of 90% or more (almost completely withered)) | 4 (Herbicidal ratio of 70% or higher and lower than 90%) | 3 (Herbicidal ratio of 40% or higher and lower than 70%) | 0 (Herbicidal ratio of 5% or lower (almost no effect)) | 0 (Herbicidal ratio of 5% or lower (almost no effect)) |  | 5 (Herbicidal ratio of 90% or more (almost completely withered)) | 5 (Herbicidal ratio of 90% or more (almost completely withered)) | 
